# Source: US20200306266A1, “SOLID DISPERSION OF DUTASTERIDE, METHOD FOR PRODUCING SAME, AND PHARMACEUTICAL COMPOSITION COMPRISING SAME” (KOREA PRIME PHARM CO., LTD., priority 2017, published 2020)
# Experiment: Storage stability, related substance test
# Format: physicochemical
# Conditions: Raw material
# Protocol: Evaluation of Storage Stability of the Preparations
# The storage stabilities of the preparations were evaluated according to the test criteria for related substances.
smiles,measurement,value
"C[C@]12C=CC(=O)N[C@@H]1CC[C@@H]1[C@@H]2CC[C@]2(C)[C@@H](C(=O)Nc3cc(C(F)(F)F)ccc3C(F)(F)F)CC[C@@H]12 [Dutasteride, 17β-N-[2,5-bis(trifluoromethyl)]phenylcarbamoyl-4-aza-5α-androst-1-en-3-one]",Judgement,Suitable
